Reference: patent publication US4132786A, “N-Substituted 2-methoxybenzenesulphonamides and medicaments containing them” (priority 1975, dated 1979)

Assays:
[1] = system: apomorphine; test: Determination of central antiemetic activity (apomorphine vomiting); assay type: in vivo, Beagle dogs; details: 1 mg/kg intramuscular; for Antiemetic effect /22 (average number of vomitings for two dogs): 30 min before 0.1 mg/kg apomorphine s.c., counted 30 min, controls 22
Protocol: These tests were carried out on adult Beagle dogs with a weight of 7 to 12 kg and which had gone without food for 18 hours. The dogs receive a dose of 1 mg/kg (0.1 ml/kg) of the compound according to the invention by intramuscular injection. 30 minutes later, 0.1 mg/kg (0.1 ml/kg) of apomorphine is administered to them subcutaneously as a central compound. The vomitings during the 30 minutes following the injection of apomorphine are counted. For two dogs serving as controls and receiving only the apomorphine 22 vomitings were counted. […] The results were confirmed by alternate tests by resuming these tests and interchanging the control dogs and the dogs on which the compounds according to the invention were previously tried.
The results relating to the toxicity and the central antiemetic activity of the compounds given hereinbefore are stated clearly in the following Table. The antiemetic activity is expressed in the form of the average number of vomitings for two dogs and is to be compared with the number 22 obtained with the control animals.

[2] = Determination of acute toxicity (LD50), intravenous, male mice; details: mouse, in vivo, 5 mice per batch, 6 days
Protocol: The acute toxicity of the compounds according to the invention was determined on male mice whose weight varied between 24 and 26 g. The compounds are administered intravenously in solution form and at the rate of 0.5 ml per 20 g of body weight, by varying the concentration of the injected solution.
Each compound is tested on a batch of 5 mice which are examined for 6 days following the injection.

[3] = Solubility remark in the Toxicity column; assay type: physicochemical; details: in words
[4] = system: cornea of rabbits; test: Local anesthetic activity by Regnier's method; assay type: in vivo; details: in words
Protocol: This activity was measured on the cornea of rabbits by Regnier's method, described on particular in "Principes de la pharmacodynamie," pp. 204-206, Masson (1959).

[5] = system: pentetrazole; test: Anticonvulsive activity (pentetrazole convulsions); assay type: in vivo, mice; details: 50 mg/kg i.p., pentetrazole 100 mg/kg i.p.
Protocol: The compounds according to the invention were tested for their anticonvulsive activity by following the procedure described hereinafter.
Each compound is administered intraperitoneally to a batch of mice at the rate of 50 mg of compound per kilogram of body weight. 30 minutes later the mice receive, still intraperitoneally, 100 mg/kg of pentetrazole.
The time of appearance of the first convulsions (clonic convulsions), that of the tonic convulsions (hyperextension) and the death of the mice is then measured. The injections of pentetrazole are carried out comparatively on control animals.

SMILES | Antiemetic effect /22 (average number of vomitings for two dogs) [1] [vomitings] | LD50 at 144 h [2] [mg/kg] | also measured
CCN(CC)CCNS(=O)(=O)c1cc(Cl)ccc1OC [Ref. l] | 8 | > 100 | 
COc1cc(N)c(Cl)cc1S(=O)(=O)NCCCN1CCOCC1 [Ref. j] | 22 | > 100 | 
CCN(CC)CCCNS(=O)(=O)c1cc(Cl)ccc1OC [Ref. m] | 12 |  | solubility (printed in Toxicity column) [3]: insoluble
COc1cc(N)c(Cl)cc1S(=O)(=O)NCCCN(C)C [Ref. h] | 9 | > 100 | 
CCN(CC)CCNS(=O)(=O)c1cc(Cl)c(N)cc1OC [Ref. f] | 13 | 50 to 100 | 
COc1cc(N)c(Cl)cc1S(=O)(=O)NCCN1CCCCC1 [Ref. g] | 13 | 50 to 100 | 
COc1ccc(S(N)(=O)=O)cc1S(=O)(=O)NCCN(C)C [Ref. n] |  | > 100 | 
CCN(CC)CCNS(=O)(=O)c1ccc(N)cc1OC [Ref. b, 2-methoxy-4-amino-N-(2-diethylaminoethyl)benzenesulphonamide] | 22 | > 100 | local anesthetic action [4]: a certain local anesthetic action
COc1cc(N)c(Cl)cc1S(=O)(=O)NCCCN1CCCCC1 [Ref. o] |  | 80 to 100 | 
CCN(CC)CCNS(=O)(=O)c1ccc([N+](=O)[O-])cc1OC | 15 | > 100 | 
CCN(CC)CCCNS(=O)(=O)c1cc(Cl)c([N+](=O)[O-])cc1OC [Ref. e] |  | > 100 | 
COc1cc([N+](=O)[O-])c(Cl)cc1S(=O)(=O)NCCN1CCCCC1 [Ref. d] | 16 | > 100 | 
CCN(CC)CCCNS(=O)(=O)c1cc(Cl)c(N)cc1OC [Ref. i, 2-methoxy-4-amino-5-chloro-N-(3-diethylaminopropyl)benzenesulphonamide] | 3 | 117 | mice dead at the end of the test (of five in the batch) ([5]; of the five mice): three; lethalness ([5]; in words): a decrease in the lethalness; antiemetic activity ([1]; in words, apomorphine 0.1 mg/kg s.c.): excellent
CCN(CC)CCCNS(=O)(=O)c1ccc(N)cc1OC [Ref. c, 2-methoxy-4-amino-N-(3-diethylaminopropyl)benzenesulphonamide] | 17 | 50 to 100 | local anesthetic action [4]: a certain local anesthetic action
COc1ccc(Cl)cc1S(=O)(=O)NCCN(C)C [Ref. k] | 22 | > 100 | 
